Values quoted from earlier work as cited in article PMC10200032 (Pharmacological Reports, 2023).
≈ marks a conversion by molar mass, not a printed value.

Test system: CVB4
Conditions: reference drug in earlier benzoquinazoline studies

- EC50 against CVB4: 29 µg/mL (≈ 119 µM)
Compound: NC(=O)c1ncn([C@@H]2O[C@H](CO)[C@@H](O)[C@H]2O)n1 [ribavirin]
